Measured values published in ChEMBL document CHEMBL5241114, “A comprehensive review of BET-targeting PROTACs for cancer therapy” (Bioorg Med Chem, 2022).

Experiments:
[1] = biological target: T1, Bromodomain-containing protein 4 (Homo sapiens, UniProt O60885); test: Binding affinity to BRD4 bromodomain 1 in human Ramos cells; type: cell-based
[2] = Antiproliferative activity against human Burkitts lymphoma cells; type: functional; conditions: Burkitts lymphoma cell
[3] = system: NAMALVA; test: Antiproliferative activity against human NAMALVA cells; type: functional
[4] = system: CWR22R; test: Antitumor activity against human 22Rv1 cells xenografted in Nu/Nu mouse assessed as tumor growth inhibition at 30 mg/kg, sc; type: functional; conditions: read-out: TGI
[5] = biological target: T1, Bromodomain-containing protein 4; test: Induction of BRD4 degradation in human HEK293T cells; type: cell-based
[6] = biological target: T1, Bromodomain-containing protein 4; test: Induction of BRD4 degradation in human HEK293T cells at 10 uM measured at 6 hrs relative to control; type: cell-based
[7] = Half life of the compound in DMSO; type: physicochemical
[8] = system: BXPC-3; test: Antiproliferative activity against human BXPC-3 cells assessed as inhibition of cell growth incubated for 72 hrs by MTT assay; type: functional, cell-based; conditions: BXPC-3, 72 h
[9] = biological target: T1, Bromodomain-containing protein 4; test: Induction of BRD4 degradation in human 231MFP cells; type: cell-based
[10] = biological target: T1, Bromodomain-containing protein 4; test: Induction of BRD4 degradation in human EOL1 cells; type: cell-based
[11] = system: HL-60; test: Antiproliferative activity against human HL-60 cells assessed as inhibition of cell growth; type: functional, cell-based
[12] = biological target: T1, Bromodomain-containing protein 4; test: Induction of BRD4 degradation in human EOL1 cells relative to control; type: cell-based
[13] = system: EOL1; test: Antiproliferative activity against human EOL1 cells assessed as inhibition of cell growth; type: functional, cell-based
[14] = system: SUD4; test: Antiproliferative activity against human SU-DHL-4 cells assessed as reduction in cell viability measured after 48 hrs by MTT assay; type: functional
[15] = biological target: T2, Caspase-3/Caspase-7 (Homo sapiens, UniProt P42574+P55210); test: Activation of caspase 3/7 in human 22Rv1 cells by Caspase-Glo reagent based analysis; type: cell-based
T2 sequence (P42574 whole entry): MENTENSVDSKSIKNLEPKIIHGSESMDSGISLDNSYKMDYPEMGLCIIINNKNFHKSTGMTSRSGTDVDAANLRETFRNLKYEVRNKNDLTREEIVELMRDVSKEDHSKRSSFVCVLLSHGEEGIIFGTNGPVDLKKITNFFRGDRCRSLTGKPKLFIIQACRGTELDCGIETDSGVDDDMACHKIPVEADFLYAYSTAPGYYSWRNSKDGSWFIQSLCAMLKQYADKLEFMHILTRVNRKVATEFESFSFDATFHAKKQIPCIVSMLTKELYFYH
T2 sequence (P55210 whole entry): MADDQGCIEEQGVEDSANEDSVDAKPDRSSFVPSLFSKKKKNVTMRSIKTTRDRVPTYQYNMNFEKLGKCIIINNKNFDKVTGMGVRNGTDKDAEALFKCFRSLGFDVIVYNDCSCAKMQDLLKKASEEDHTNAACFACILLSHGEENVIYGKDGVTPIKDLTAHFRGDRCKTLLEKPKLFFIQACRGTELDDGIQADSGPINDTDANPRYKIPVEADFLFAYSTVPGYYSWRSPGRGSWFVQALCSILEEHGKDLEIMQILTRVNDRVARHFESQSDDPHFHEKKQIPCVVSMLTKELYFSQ

COc1cc(CN(CCCCNC(=O)COc2cccc3c2C(=O)N(C2CCC(=O)NC2=O)C3=O)C(=O)C[C@@H]2N=C(c3ccc(Cl)cc3)c3c(sc(C)c3C)-n3c(C)nnc32)c([N+](=O)[O-])cc1OC (some centres not stated)
IC50 [1]: 7600 nM | GI50 [2]: 400 nM | GI50 [3]: 340 nM

Cc1sc2c(c1C)C(c1ccc(Cl)cc1)=N[C@@H](CC(=O)Nc1ccc(O)cc1)c1nnc(C)n1-2 [BIRABRESIB]
inhibition in vivo at 30 mg/kg [4]: 38%

Cc1c(C(=O)NCCCCCNc2cccc3c2C(=O)N(C2CCC(=O)NC2=O)C3=O)sc2c1C(c1ccc(Cl)cc1)=N[C@@H](CC(=O)OC(C)(C)C)c1nnc(C)n1-2 (some centres not stated)
DC50 [5]: 5 nM

Cc1sc2c(c1C)C(c1ccc(Cl)cc1)=N[C@@H](CC(=O)NCCOCCOCCN1CCOc3cc(N(CCC#N)C(=O)CCl)ccc31)c1nnc(C)n1-2
Emax [6]: 85% | DC50 [5]: 1100 nM

COc1cc(/N=N\c2cccc3c2CN(C2CCC(=O)NC2=O)C3=O)cc(OC)c1OCC(=O)NCCCCNC(=O)C[C@@H]1N=C(c2ccc(Cl)cc2)c2c(sc(C)c2C)-n2c(C)nnc21 (some centres not stated)
half-life [7]: 8.8 h

CCS(=O)(=O)Nc1ccc(Oc2ccc(F)cc2F)c(-c2cn(C)c(=O)c3[nH]ccc23)c1 [MIVEBRESIB]
IC50 [8]: 1220 nM

COC(=O)C[C@H]1[C@]2(C)C3=C(C)[C@H](c4ccoc4-c4ccc(C(=O)NCCCNC(=O)C[C@@H]5N=C(c6ccc(Cl)cc6)c6c(sc(C)c6C)-n6c(C)nnc65)cc4)C[C@H]3O[C@@H]2[C@@H]2OC(=O)[C@]3(C)C=CC(=O)[C@@]1(C)[C@@H]23
IC50 [9]: 240 nM

CCS(=O)(=O)Cc1cc2c(cc1C(=O)NCCCCCCCCCCC(=O)N[C@H](C(=O)N1C[C@@H](O)C[C@H]1C(=O)NCc1ccc(-c3scnc3C)cc1)C(C)(C)C)N(c1ncc(F)cc1F)Cc1c[nH]c3c(=O)n(C)cc-2c13
DC50 [10]: 0.03 nM | IC50 [11]: 0.03 nM | Emax [12]: > 99% | IC50 [13]: 0.02 nM

Cc1sc2c(c1C)C(c1ccc(Cl)cc1)=N[C@@H](CC(=O)NCCOCCNC(=O)CN1CCOc3cc(N(CCC#N)C(=O)CCl)ccc31)c1nnc(C)n1-2
Emax [6]: 81% | DC50 [5]: 820 nM

Cc1sc2c(c1C)C(c1ccc(Cl)cc1)=N[C@@H](CC(=O)NCCOCCOCCOCCOCCN1CCOc3cc(N(CCC#N)C(=O)CCl)ccc31)c1nnc(C)n1-2
Emax [6]: 80% | DC50 [5]: 1600 nM

Cc1sc2c(c1C)C(c1ccc(Cl)cc1)=N[C@@H](CC(=O)OC(C)(C)C)c1nnc(C)n1-2
GC50 [14]: 3120 nM

Cc1ncsc1-c1ccc(CNC(=O)[C@@H]2C[C@@H](O)CN2C(=O)[C@@H](NC(=O)COCC(C)(COCCOCCOCCNC(=O)C[C@@H]2N=C(c3ccc(Cl)cc3)c3c(sc(C)c3C)-n3c(C)nnc32)COCCOCCOCCNC(=O)C[C@@H]2N=C(c3ccc(Cl)cc3)c3c(sc(C)c3C)-n3c(C)nnc32)C(C)(C)C)cc1
EC50 [15]: 2 nM

Cc1sc2c(c1C)C(c1ccc(Cl)cc1)=N[C@@H](CC(=O)NCCCNC(=O)CN1CCOc3cc(N(CCC#N)C(=O)CCl)ccc31)c1nnc(C)n1-2
Emax [6]: 71% | DC50 [5]: 810 nM
